Source: patent EP4596561A1, “PHOSPHORUS-CONTAINING COMPOUND, PHARMACEUTICAL COMPOSITION AND USE THEREOF” (Suzhou Genhouse Bio Co., Ltd., priority 2022, dated 2024)
Where two headings read alike, the source gives them in different places.

Key:
NCI-H28 (NF2 wide-type) = test: Inhibition of cell proliferation (CellTiter-Lumi); format: cell-based; settings: Homo sapiens, 72 h + another 72 h treatment
Protocol: (§1) NCI-H2052 (NF2 mutant), NCI-H226 (NF2 mutant), NCI-H2452 (NF2 wide-type), NCI-H28 (NF2 wide-type), and MSTO-211H (NF2 wide-type) cells were cultured in RPMI 1640 complete media.
(§2) The normally growing cells described above were digested with a trypsin cell-digesting solution, centrifuged, counted, and then plated in a 96-well plate at a density of 1000 cells per well. Administration was performed 24 h after the cell plating. Inhibitors at different concentration gradients were added at 10 µL per well, and three replicate wells were set for each concentration point. The starting concentration was 20 µM and diluted 8 times with a 4-fold gradient. A corresponding negative control group treated with 0.1% DMSO was also set up. After 72 h of drug treatment, the cell culture plate to be tested was taken out of the incubator. The culture medium in the 96-well plate was pipetted, and 190 µL of fresh RPMI 1640 complete medium was added. Another administration was performed, and the cells were cultured for another 72 h. The 96-well plate was taken out and allowed to equilibrate at room temperature for 10 min. […] After shaking for two minutes, the mixture was reacted at room temperature for 10 min. Then, 150 µL of liquid was pipetted from the transparent 96-well plate and transferred to a white 96-well plate for chemiluminescence reading. The background value was subtracted from the value for each well to calculate the cell survival rate. Survival rate (%) = […]. Sample is the chemiluminescence of the drug-treated group, and Vehicle is the […] of the DMSO control group. A sigmoidal dose-survival rate curve was plotted using a non-linear regression model in the GraphPad Prism 7.0 software, and the IC50 values or GI50 values were calculated.

[1] = test system: NCI-H2452 (NF2 wide-type); test: Inhibition of cell proliferation (CellTiter-Lumi); format: cell-based; settings: Homo sapiens, 72 h + another 72 h treatment
Protocol: as §1, §2

[2] = test system: YAP-TEAD transcription complex; test: YAP-TEAD reporter gene assay (dual luciferase, stably transfected 293T cells); format: cell-based; settings: Homo sapiens, HEK-293T
Protocol: YAP-TEAD reporter gene The YAP-TEAD reporter gene assay was performed as follows. Firstly, the 8xGTIIC promoter sequence ([…] GTACTGTTGGTAAA) was constructed into a pGL4.20(luc2-Puro) plasmid, and the TK promoter ([…]) unrelated to the hippo pathway was constructed into a pGL4.78(hRlucCP/Hygro) plasmid, thereby constructing stably transfected 293T cells that can stably and continuously express the transcriptional activity of the YAP-TEAD transcription complex. After selection and identification of individual clones, the clones were grown and maintained in a DMEM medium containing 10% fetal bovine serum, penicillin-streptomycin solution, 1 µg/mL puromycin, and 150 µg/mL hygromycin. To perform reporter gene assays with the compounds to be tested, the well-growing cells described above were plated in a 384-well plate at a cell density of 3000 cells per well, with 90 µL per well. The periphery was sealed with an appropriate amount of PBS to prevent evaporation of water from the peripheral wells. Administration was performed on the next day after the cell plating. The test compounds were added at different concentration gradients, and three replicate wells were set for each concentration point. The compound concentration started at 5 µM and was diluted seven times with a 5-fold gradient. A corresponding negative control group treated with DMSO was also set up. After 24 h of drug treatment, the detection reagents were prepared first. The Dual-Lumi™ Firefly luciferase detection reagent and Dual-Lumi™ Renilla luciferase detection buffer were dissolved and brought to room temperature. […]. According to the amount of 100 µL of Dual-Lumi™ Renilla luciferase detection working solution required for the detection of each sample, an appropriate amount of Dual-Lumi™ Renilla luciferase detection working solution was prepared. […]. The cell culture plate was taken out and allowed to equilibrate at room temperature for 10 min (usually no more than 30 min). Then, 100 µL of Dual-Lumi™ Firefly luciferase detection reagent was added to each well of a 96-well plate (25 µL per well for the 384-well plate), and the mixture was mixed well. The mixture was then incubated at room temperature (about 25 °C) for 10 min to stabilize the luminescent signal, and then chemiluminescence was detected using a multimode microplate reader with a chemiluminescence detection function. Subsequently, the detection of Renilla luciferase began. Firstly, 100 µL of Dual-Lumi™ Renilla luciferase detection working solution was added to each well of a […] (25 µL per well for the 384-well plate), and the mixture was mixed well. The mixture was then incubated at room temperature (about 25 °C) for 10 min to stabilize the luminescent signal. Finally, chemiluminescence was detected using a multimode microplate reader with a chemiluminescence detection function. The obtained data were analyzed using GraphPad Prism 7.0 software. A sigmoidal dose-survival rate curve was plotted using a non-linear regression model, and the IC50 values were calculated.

in vivo = settings: mouse, plasma, po, 100 mg/kg
Protocol: After adding 5% DMSO, the mixture was vortexed. 15% HS15 was then added, and the mixture was vortexed again. Finally, a 10% aqueous cyclodextrin solution was added, and the resulting mixture was vortexed to prepare the final concentration solution or suspension.

[3] = Saturated solubility in FaSSIF solution; format: physicochemical; settings: room temperature, stirred overnight
Protocol: Efficacy Experimental Example 9: Test of Saturated Solubility of Samples in FaSSIF Solution
About 0.21 g of sodium hydroxide, about 2.24 g of sodium dihydrogen phosphate dihydrate, and 3.09 g of sodium chloride were weighed out and dissolved in 500 mL of water, and after dissolution, the pH was adjusted to 6.5 with 1 N sodium hydroxide or 1 N hydrochloric acid.
112 mg of FaSSIF solid was weighed out and placed in a 50 mL volumetric flask, and the buffer described above was added for dissolution. The resulting solution was diluted to volume, mixed well, and left to stand at room temperature for 2 h or more.
Test sample: About 1 mg of the test sample was taken, and 1 mL of FaSSIF solution was added. The mixture was stirred at room temperature overnight and centrifuged, and the supernatant was collected and injected for analysis.
Reference sample solution: About 1.5 mg of the test sample was precisely weighed out and placed in a 50 mL volumetric flask, and DMF was added for dissolution. The resulting solution was diluted to volume and mixed well.
The peak of the main component of the reference sample and the peak of the test sample with the same retention time were integrated, and the concentration thereof in the FaSSIF solution was calculated according to the external standard method.

[4] = Pharmacokinetic test in mice (low dose); format: in vivo, Balb/c mice; settings: mouse, plasma, mice; for AUC(0-t): read-out: AUClast; for half-life: read-out: T1/2 (converted)
Protocol: The compounds of the present disclosure were administered to Balb/c mice by single intravenous injection and oral gavage, and the plasma of the mice at each time point was collected. The concentration of the compounds to be tested in BALB/C plasma was detected using the LC-MS/MS analysis method, and pharmacokinetic analysis was performed.
The mixture was vortexed, shaken, and ultrasonicated. The remaining volume of 25% sulfobutylether-β-cyclodextrin (sterilized) was added to prepare the final concentration solution or suspension.
Intravenous injection formulations will be directly administered in animal experiments without filtration. The IV drug preparation vials were disinfected in an infrared sterilization cabinet one day in advance.
Intravenous injection: Administration was performed via the tail vein. After the needle was inserted, the syringe was slowly […].
Gavage: Gavage needle and syringe of an appropriate type were selected. The gavage needle was inserted from the root of the tongue into the esophagus until it reached near the cardia of the stomach, then the drug formulation was injected, and the gavage needle was withdrawn. When disposable plastic gavage needles were used, one needle was used for each group.
At each time point, 60 µL of whole blood was collected from the submandibular vein or tail vein (except for the IV group). The blood sample was added to a pre-cooled anticoagulant blood collection tube containing anticoagulant EDTA-K2 (1 µL, 15% EDTA-K2 solution), placed on wet ice, and centrifuged (3000 g, 4 °C, 10 min) within 1 h. The plasma was immediately collected after centrifugation, transferred to an EP tube, and stored at -90 °C to -60 °C.
Plasma concentration detection: A developed LC-MS/MS method was used to detect the compounds in plasma.
The plasma concentration-time data were analyzed using a non-compartmental model in the Phoenix® WinNonlin® (Version 8.2, Pharsight, Mountain View, CA).

[5] = 293T reporter cells, 24 h of drug treatment, read-out: IC50

SMILES | IC50 (NCI-H28 (NF2 wide-type)) [µM] | IC50 [1] [µM] | IC50 [2, 5] [µM] | IC50 ([2]; 24 h) [µM] | further results
CP(C)(=O)c1ccc2c(Oc3ccc(Cl)cc3)cccc2c1 [Example 28] | > 20 | > 50 | 0.283 |  | 
Cc1cc(Oc2ccc(C(F)(F)F)cc2)c2ccc(P(C)(C)=O)cc2c1 [Example 29] | > 1.25 | > 1.25 | 0.00465 |  | AUC(0-t) (in vivo): 2160 µM·h; FaSSIF(pH = 6.5) [3]: 223.4 ug/mL; AUC(0-t) ([4]; IV 2 mg/kg): 50.8 µM·h; clearance ([4]; IV 2 mg/kg, read-out: Cl (converted)): 0.4 mL/min/kg; half-life ([4]; IV 2 mg/kg): 63.5 h; bioavailability ([4]; PO 10 mg/kg vs IV 2 mg/kg, read-out: F%): 99%; AUC(0-t) ([4]; PO 10 mg/kg): 251 µM·h; Cmax ([4]; PO 10 mg/kg, read-out: Cmax): 13.3 µM; half-life ([4]; PO 10 mg/kg): 17 h
Cn1cnc(-c2cc(P(C)(C)=O)ccc2Nc2ccc3c(c2)OC(F)(F)O3)c1 [Example 30] |  |  |  | 0.0237 | 
Cn1cnc(-c2cc(P(C)(C)=O)ccc2Nc2ccc(S(F)(F)(F)(F)F)cc2)c1 [Example 31] |  |  | 0.0619 |  | 
Cn1cnc(-c2cc(P(C)(C)=O)ccc2Nc2ccc(Cl)cc2)c1 [Example 32] |  |  |  | 0.0785 | 
CP(C)(=O)c1cnc(Nc2ccc(C(F)(F)F)cc2)c(-c2ccccn2)c1 [Example 33] |  |  |  | 0.0198 | 
Cn1cnc(-c2cc(P(C)(C)=O)cnc2Nc2ccc3c(c2)OC(F)(F)O3)c1 [Example 34] | > 5 | > 5 | 0.191 |  | 
Cn1cnc(-c2cc(P(C)(C)=O)cnc2Nc2ccc(S(F)(F)(F)(F)F)cc2)c1 [Example 36] | > 20 | > 20 | 0.0392 |  | 
CP(C)(=O)c1cnc(Nc2ccc(S(F)(F)(F)(F)F)cc2)c(-c2cn3c(n2)CCC3)c1 [Example 37] |  |  |  | 0.00593 | 
CP(C)(=O)c1cnc(Nc2ccc(Cl)cc2)c(-c2cn3c(n2)CCC3)c1 [Example 38] |  |  |  | 0.0287 | 
CP(C)(=O)c1cnc(Nc2ccc3c(c2)OC(F)(F)O3)c(-c2cn3c(n2)CCC3)c1 [Example 39] | > 1.25 | > 1.25 | 0.0324 |  | 
